{"source": "paper PMC12801355", "about": "“Peptide Amphiphiles Hitchhike on Endogenous Biomolecules for Enhanced Cancer Imaging and Therapy” (Advanced Materials (Deerfield Beach, Fla.), 2025)", "key": {"[1]": {"target": "T1, human plasma proteins (Homo sapiens, UniProt P04114)", "T1 construct": "incubated with 50% pooled human plasma at 37 °C for 2 h; from tissue; host or cells: pooled human plasma (50%)", "T1 sequence (P04114 28-4563)": "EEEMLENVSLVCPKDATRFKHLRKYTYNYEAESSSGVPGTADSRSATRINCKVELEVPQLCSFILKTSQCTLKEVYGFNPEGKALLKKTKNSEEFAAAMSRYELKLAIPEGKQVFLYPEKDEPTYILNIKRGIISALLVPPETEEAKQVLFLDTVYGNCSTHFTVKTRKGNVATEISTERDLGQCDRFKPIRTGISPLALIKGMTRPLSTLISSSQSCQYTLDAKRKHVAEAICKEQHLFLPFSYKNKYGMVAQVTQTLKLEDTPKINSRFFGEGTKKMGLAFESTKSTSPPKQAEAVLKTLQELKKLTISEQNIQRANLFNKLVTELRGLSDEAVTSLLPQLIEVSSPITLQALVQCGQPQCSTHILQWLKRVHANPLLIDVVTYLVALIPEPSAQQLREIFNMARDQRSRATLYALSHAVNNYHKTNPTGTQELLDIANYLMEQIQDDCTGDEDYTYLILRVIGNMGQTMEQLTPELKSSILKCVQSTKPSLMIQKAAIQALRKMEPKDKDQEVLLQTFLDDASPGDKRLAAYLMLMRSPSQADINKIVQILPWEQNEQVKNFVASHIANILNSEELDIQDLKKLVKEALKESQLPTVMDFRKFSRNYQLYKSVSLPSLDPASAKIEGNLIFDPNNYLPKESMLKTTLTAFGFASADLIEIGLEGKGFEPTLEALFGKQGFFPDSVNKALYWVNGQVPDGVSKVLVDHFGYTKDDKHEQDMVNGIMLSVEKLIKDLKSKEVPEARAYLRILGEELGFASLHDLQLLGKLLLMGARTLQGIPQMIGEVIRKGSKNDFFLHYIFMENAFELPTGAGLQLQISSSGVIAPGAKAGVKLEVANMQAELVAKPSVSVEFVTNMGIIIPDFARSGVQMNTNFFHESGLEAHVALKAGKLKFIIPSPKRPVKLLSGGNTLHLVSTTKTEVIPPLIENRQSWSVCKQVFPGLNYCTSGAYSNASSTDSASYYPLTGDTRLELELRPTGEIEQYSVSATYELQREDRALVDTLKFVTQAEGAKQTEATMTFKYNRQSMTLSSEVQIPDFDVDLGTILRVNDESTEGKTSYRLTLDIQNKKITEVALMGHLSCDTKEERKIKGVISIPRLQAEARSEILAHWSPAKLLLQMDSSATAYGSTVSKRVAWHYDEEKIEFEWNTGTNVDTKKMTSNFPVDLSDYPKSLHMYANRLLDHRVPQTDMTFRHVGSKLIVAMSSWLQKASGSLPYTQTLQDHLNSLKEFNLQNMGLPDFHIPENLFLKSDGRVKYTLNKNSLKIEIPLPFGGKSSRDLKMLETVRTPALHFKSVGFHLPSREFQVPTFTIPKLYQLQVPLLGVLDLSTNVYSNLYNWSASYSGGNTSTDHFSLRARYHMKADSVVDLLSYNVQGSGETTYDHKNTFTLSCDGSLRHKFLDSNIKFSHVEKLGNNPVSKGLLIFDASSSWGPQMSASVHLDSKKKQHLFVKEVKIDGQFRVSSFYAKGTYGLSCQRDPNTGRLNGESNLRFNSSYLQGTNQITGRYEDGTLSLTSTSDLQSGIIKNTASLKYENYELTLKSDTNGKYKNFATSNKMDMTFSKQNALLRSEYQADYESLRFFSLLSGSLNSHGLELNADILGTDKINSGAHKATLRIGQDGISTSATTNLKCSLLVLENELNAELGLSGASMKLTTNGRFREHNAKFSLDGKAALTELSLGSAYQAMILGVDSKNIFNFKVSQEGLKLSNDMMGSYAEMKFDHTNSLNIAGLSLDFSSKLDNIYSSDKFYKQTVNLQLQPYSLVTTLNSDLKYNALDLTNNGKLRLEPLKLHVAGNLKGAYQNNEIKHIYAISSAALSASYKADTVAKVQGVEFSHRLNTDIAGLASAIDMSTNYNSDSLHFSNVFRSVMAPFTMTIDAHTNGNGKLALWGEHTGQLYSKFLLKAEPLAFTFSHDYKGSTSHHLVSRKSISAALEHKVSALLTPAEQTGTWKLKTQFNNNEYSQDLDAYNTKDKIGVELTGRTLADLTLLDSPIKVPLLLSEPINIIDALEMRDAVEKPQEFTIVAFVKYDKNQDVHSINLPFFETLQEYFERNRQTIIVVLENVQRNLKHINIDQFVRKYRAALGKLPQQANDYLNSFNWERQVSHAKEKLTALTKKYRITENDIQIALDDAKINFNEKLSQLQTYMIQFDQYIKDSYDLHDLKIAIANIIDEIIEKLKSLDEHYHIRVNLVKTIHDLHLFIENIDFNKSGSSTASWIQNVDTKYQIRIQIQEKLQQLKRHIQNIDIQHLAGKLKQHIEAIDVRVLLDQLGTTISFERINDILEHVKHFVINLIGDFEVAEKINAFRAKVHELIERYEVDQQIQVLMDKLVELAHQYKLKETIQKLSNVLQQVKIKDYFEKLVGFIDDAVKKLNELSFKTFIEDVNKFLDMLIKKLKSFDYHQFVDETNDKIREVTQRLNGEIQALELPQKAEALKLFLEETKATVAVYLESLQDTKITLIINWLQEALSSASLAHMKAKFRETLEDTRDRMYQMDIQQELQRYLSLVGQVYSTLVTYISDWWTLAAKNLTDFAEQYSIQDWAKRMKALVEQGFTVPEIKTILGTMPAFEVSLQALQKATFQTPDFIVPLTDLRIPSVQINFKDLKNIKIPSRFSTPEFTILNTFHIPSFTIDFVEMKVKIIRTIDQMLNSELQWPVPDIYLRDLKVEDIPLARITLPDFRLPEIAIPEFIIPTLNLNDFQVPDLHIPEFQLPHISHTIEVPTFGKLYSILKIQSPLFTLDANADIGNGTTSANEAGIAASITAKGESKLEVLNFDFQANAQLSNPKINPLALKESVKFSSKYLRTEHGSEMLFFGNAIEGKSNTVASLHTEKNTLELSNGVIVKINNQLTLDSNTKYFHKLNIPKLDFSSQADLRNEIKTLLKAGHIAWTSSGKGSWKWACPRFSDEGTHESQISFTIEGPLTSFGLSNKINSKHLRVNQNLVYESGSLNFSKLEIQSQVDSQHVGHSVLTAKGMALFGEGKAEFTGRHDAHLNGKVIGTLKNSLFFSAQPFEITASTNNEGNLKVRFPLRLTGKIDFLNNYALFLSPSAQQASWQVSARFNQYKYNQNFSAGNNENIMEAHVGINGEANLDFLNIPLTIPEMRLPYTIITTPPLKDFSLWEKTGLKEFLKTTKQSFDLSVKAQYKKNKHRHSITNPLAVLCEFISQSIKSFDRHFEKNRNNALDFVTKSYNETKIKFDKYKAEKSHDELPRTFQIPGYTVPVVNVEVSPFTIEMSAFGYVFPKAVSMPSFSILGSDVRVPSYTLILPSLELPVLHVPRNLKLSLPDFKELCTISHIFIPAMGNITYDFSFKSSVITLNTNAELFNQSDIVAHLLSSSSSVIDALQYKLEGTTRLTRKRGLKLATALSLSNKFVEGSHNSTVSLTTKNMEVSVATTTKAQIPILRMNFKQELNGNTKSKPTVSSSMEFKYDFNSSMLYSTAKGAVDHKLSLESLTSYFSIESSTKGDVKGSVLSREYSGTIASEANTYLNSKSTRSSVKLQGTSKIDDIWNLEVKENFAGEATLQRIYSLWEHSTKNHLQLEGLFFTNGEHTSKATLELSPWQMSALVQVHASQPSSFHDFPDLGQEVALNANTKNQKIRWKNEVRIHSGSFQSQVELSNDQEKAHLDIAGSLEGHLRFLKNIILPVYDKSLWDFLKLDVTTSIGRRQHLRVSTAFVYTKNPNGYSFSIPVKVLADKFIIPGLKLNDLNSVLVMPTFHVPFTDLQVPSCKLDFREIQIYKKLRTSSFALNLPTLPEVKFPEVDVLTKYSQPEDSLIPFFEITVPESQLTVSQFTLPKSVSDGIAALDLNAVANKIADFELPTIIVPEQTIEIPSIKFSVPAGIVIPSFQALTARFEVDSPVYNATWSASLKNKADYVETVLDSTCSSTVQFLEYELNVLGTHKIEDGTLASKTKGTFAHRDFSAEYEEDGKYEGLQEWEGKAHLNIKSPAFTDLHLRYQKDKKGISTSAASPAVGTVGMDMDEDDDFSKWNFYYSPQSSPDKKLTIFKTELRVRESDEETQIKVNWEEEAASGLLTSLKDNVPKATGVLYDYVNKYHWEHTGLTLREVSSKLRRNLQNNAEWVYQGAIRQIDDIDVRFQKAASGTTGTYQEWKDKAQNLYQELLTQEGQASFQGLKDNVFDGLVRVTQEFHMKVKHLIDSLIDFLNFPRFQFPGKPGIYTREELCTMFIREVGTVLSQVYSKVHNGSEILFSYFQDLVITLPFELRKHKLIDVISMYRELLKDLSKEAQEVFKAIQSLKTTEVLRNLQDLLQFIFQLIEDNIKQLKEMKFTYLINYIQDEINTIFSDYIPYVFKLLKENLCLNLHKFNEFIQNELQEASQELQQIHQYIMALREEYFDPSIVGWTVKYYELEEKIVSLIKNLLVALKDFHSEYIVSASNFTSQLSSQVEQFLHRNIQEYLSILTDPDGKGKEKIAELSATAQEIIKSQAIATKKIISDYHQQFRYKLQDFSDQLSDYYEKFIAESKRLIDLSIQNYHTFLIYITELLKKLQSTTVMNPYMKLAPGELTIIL", "assay": "Mass spectrometry of proteins pulled down with biotinylated SA‐E (SA‐Eb) from human plasma", "type": "binding", "description": "Samples were prepared for mass spectrometry analysis via a pull‐down of a biotinylated version of the SA‐E probe (SA‐Eb, 100 µM) incubated with 50% pooled human plasma at 37 °C for 2 h. Before incubation with the SA‐Eb‐plasma mixture, magnetic streptavidin‐coated beads (Dynabeads MyOne Streptavidin T1, Invitrogen, 65601) were washed with PBS (10 mM, pH 7.4) then blocked with 1% casein equal to the total initial volume of beads for 15 min at room temperature. After blocking, beads were washed again with PBS. Beads were then combined with SA‐Eb‐plasma solution, 25 µL beads to 200 µL mixture. This mixture was then incubated at room temperature for 30 min. After incubation, the remaining solution was removed, and the beads were washed five times with PBS. Bound SA‐Eb was eluted from beads in 30 µL 0.5% Triton X‐100 solution. Magnetic beads were then removed, and the elution was collected for analysis. For plasma control, the incubation with SA‐Eb step was skipped, and 50% plasma in PBS was incubated with beads and washed and eluted using the same method as the SA‐Eb‐plasma solution. The elution solutions were then analyzed by the Proteomics Shared Resource facility at Oregon Health & Science University (See Supporting Information for details).\nSample Preparation. Eluted plasma samples were dried down and stored at -80°C. Samples were thawed at room temperature for 10 min, and 75 µL of SDS protein extraction buffer (5% SDS, 50 mM […]; TEAB) was added to each sample. Samples were shaken in a Thermo mixer for 10 minutes at room temperature and centrifuged at 10,000 g for 5 min. Each sample was transferred from a 0.5 mL tube to a 1.5 mL LoBind centrifuge tube. Samples were reduced by adding 3.4 µL of 0.5 M dithiothreitol and incubated at 95 °C for 10 min. Samples were alkylated by the addition of 6.8 µL of 0.5 M iodoacetamide and were incubated at room temperature for 30 min in the dark. Samples were then acidified by the addition of 8.52 µL of 12% phosphoric acid, and 562 µL of SDS protein binding buffer (90% methanol, 100 mM TEAB, pH 7.51). Samples were transferred 165 µL at a time to S-trap micro columns (Protifi, Farmingdale, NY) and inserted into 1.5 mL of polypropylene tubes. Samples were centrifuged at 4,000 g for 3 min between each addition of the sample. S-trap columns were washed 6 times using 150 µL of 90% methanol containing 100 mM of TEAB followed by centrifugation at 4,000g for 3 min between each wash step. S-trap columns containing the bound sample proteins were transferred to 1.5 mL LoBind centrifuge tubes and 40 µL of 80 ng/µL sequencing grade modified trypsin (Pierce TM Trypsin Protease MS-Grade, XG348166) in 50 mM TEAB was added. S-trap columns were loosely capped, and digestion was performed at 37°C overnight in a humidified chamber.\nAfter completion of digestion, peptides were eluted by sequential addition of 40 µL of TEAB, 40 µL of 0.2% aqueous formic acid, and 40 µl of 50% acetonitrile, 0.2% formic acid, with centrifugation at 4,000 g for 4 min between each addition of elution buffer. The elution fractions were combined and then dried by vacuum centrifugation. Samples were reconstituted by adding 20 µL of 5% formic acid, shaking at 37 °C, and spinning at 15,000 g for 5 min. The supernatant of each sample was transferred to an auto-sample vial.\nData analysis. Mass spectrometry data from all samples were processed using COMET/PAWS against Uniprot_Human_database. Comet (v. 2016.01, rev. 3)^8 was used to search MS2 Spectra against a January 2023 version of canonical FASTA protein database containing human uniprot sequences, and concatenated sequence-reversed entries to estimate error thresholds and 179 common contaminant sequences and their reversed forms. The database processing was performed using python scripts available at https://github.com/pwilmart/fasta_utilities.git and Comet results were processed using the PAW pipeline2 from https://github.com/pwilmart/PAW_pipeline.git."}, "[2]": {"tested_on": "4T1 cells", "assay": "Uptake of SA‐E in the presence of inhibitors", "type": "cell-based, mouse", "details": "inhibitor 10 µM, 20 min pre‐incubation, Cy5 SA‐E 20 µM, FBS free media", "description": "To explore the effect of serum proteins and different inhibitors on the cellular uptake of SA‐E, 4T1 cells were grown to near confluency in 96 well plates, as described above. For cellular uptake mechanism studies, the growth media (RPMI containing 10% FBS) was exchanged for 100 µL of FBS free media, then returned to the incubator. Inhibitors (brefeldin A, bromsulphalein, chlorpromazine hydrochloride, cis‐ACBD, filipin, heparin, methyl‐β‐cyclodextrin, or wortmannin) were made in FBS free media at a concentration of 1 mM. Then, 1 µL of media containing inhibitors was added to wells, so that the final drug concentration in each well was 10 µM. The plate was returned to the incubator for 20 min. After incubation, Cy5 conjugated SA‐E was added to all wells such that the final concentration was 20 µM per well. The plate was returned to the incubator for 30 min. Wells were aspirated and washed with PBS as above. 100 µL of FBS free media was added, and the plate was returned to the incubator for 1 h. Finally, Hoechst staining and fluorescence imaging were performed using a Leica Thunder DMi8 fluorescent microscope, as described above."}, "[3]": {"assay": "Clearance study (urine and stool)", "type": "in vivo, mouse", "details": "50 nmol IV", "description": "Six Balb/c mice were intravenously injected with 100 µL of either ICG‐conjugated SA‐E or PBS, with three mice in each group. Urine and stool samples were collected from each mouse at different time points up to 7 days. […] Urine from healthy Balb/c mice was collected and pooled to generate a calibration curve. Fluorescence of stool samples was detected using an IVIS (PerkinElmer)."}, "[4]": {"assay": "Toxicity in mice", "type": "in vivo, mouse", "details": "wild type mice, 200 nmol IV, 5 mice", "description": "Wild type mice were injected intravenously with ICG conjugated SA‐E at 4 times the dose used previously for imaging (100 µL, 2 mM). 1 day later, blood was removed via cardiac puncture, placed into an EDTA tube, and then centrifuged at 1500 g for 10 min, then 2500 g for 10 min to obtain plasma. The plasma was analyzed for Aspartate Aminotransferase activity (AST) (Abcam, AB105135) and creatinine (Crystal Chem, 80350) following the manufacturer's protocol. For complete blood counts, whole blood (10 µL) was mixed with 2 mM EDTA (10 µL) and analyzed using the HemaVet 950S (Drew Scientific)."}}, "note": "Where a SMILES comes first, the peptide text is derived from it. The star is where a group is joined. Palmitoyl = CCCCCCCCCCCCCCCC(=O)*"}
{"compound": "CCCCCCCCCCCCCCCC(=O)NCC(=O)NCC(=O)NCC(=O)N[C@@H](Cc1c[nH]cn1)C(=O)N[C@@H](C)C(=O)N[C@@H](C)C(=O)N[C@@H](CC(N)=O)C(=O)NCC(=O)N[C@@H](CCC(=O)O)C(=O)N[C@@H](CCC(=O)O)C(=O)N[C@@H](CS)C(=O)N[C@@H](CCC(=O)O)C(=O)O", "note": "[SA‐E] (Palmitoyl-GGGHAANGEECE-OH)", "values": [{"measurement": "Percentage, Apolipoprotein B-100", "setting": "[1]; replicate 1", "result": 4.7, "unit": "%"}, {"measurement": "Total Counts, Apolipoprotein B-100", "setting": "[1]; replicate 1", "result": 166}, {"measurement": "Percentage, Apolipoprotein B-100", "setting": "[1]; replicate 2", "result": 6.0, "unit": "%"}, {"measurement": "Total Counts, Apolipoprotein B-100", "setting": "[1]; replicate 2", "result": 170}, {"measurement": "cellular uptake with Filipin", "setting": "[2]", "result": "decreased SA‐E uptake to a lesser extent"}, {"measurement": "cellular uptake with Methyl‐β‐cyclodextrin", "setting": "[2]", "result": "Significant decreases"}, {"measurement": "cellular uptake with Wortmannin", "setting": "[2]", "result": "Significant decreases"}, {"measurement": "cellular uptake with bromosulfalein (BSP)", "setting": "[2]", "result": "no change"}, {"measurement": "cellular uptake with cis‐ACBD", "setting": "[2]", "result": "no change"}, {"measurement": "fluorescence in urine samples", "setting": "[3]; any time point up to 7 days, plate reader", "result": "No fluorescence signal was detected"}, {"measurement": "decline of ICG signal in stool", "setting": "[3]; Balb/c mice, IVIS", "result": "mostly diminished at 2 days"}, {"measurement": "time of peak ICG signal in stool", "setting": "[3]; Balb/c mice, IVIS, n = 3", "result": 6, "unit": "h"}, {"measurement": "Aspartate transferase (AST) versus control", "setting": "[4]; 1 day", "result": "no difference"}, {"measurement": "Creatinine versus control", "setting": "[4]; 1 day", "result": "no difference"}, {"measurement": "complete blood counts (CBC) versus control", "setting": "[4]; blood 1 day after injection", "result": "no difference"}]}
